Test results reported in a melting point compilation (Tetko et al.; mined from patent text by program, amines drawn as free bases though some values may be those of a salt).

| Compound | melting point [°C] |
| --- | --- |
| CN1CCC(c2c[nH]c3ccc(-c4cccs4)cc23)C1 (configuration not stated) | 166 to 168 |
| CCOC(=O)C1CCCN(C(=O)/C=C/c2ccc(Sc3ccc4c(c3)OCCO4)c([N+](=O)[O-])c2)C1 (configuration not stated) | 73 to 75 |
| CC(=O)SCC(Cc1ccccc1C)C(=O)O (configuration not stated) | 63 to 70 |
| CCCCOC(=O)C(=C1SC=CS1)S(=O)(=O)C(C)C | 67 to 69 |
| C#CC1(O)CN2CCC1CC2 (configuration not stated) | 199 to 202 |
| Cn1nc(N)cc1COCc1ccccc1 | 214 |
| CNC(=O)NC1CCCCc2sccc21 (configuration not stated) | 220 to 222 |
| c1cc2c3c(nnc4c3c1OCC4)CCO2 | 249 |
| CCC(=O)c1cc(Cl)c(O)c(Cl)c1 | 50 to 52 |
| CCN1CCC(N2C(=O)c3ccc([N+](=O)[O-])cc3C2=O)CC1 | 153 to 155 |
| N#Cc1cc2c(Cl)ncnc2s1 | 185 to 190 |
| C#Cc1cccc(C(=O)OCc2ccccc2)c1N | 42 to 43 |
| CC1(C(=O)O)OC2CCCCC2NC1=O (configuration not stated) | 142 to 144 |
| CC#CC(C)(C)NC(=O)C(CC)Oc1cncc(C#N)c1 (configuration not stated) | 112 to 113 |
| Cc1nc(-c2ccccc2)c(CBr)o1 | 75 to 76 |
| OC[C@@H]1CC[C@H](CO)O1 | 128 to 129 |
| O=[N+]([O-])c1cccc2c(Br)cc3nc(O)c(O)nc3c12 | > 300 |
| CC1(C)COC(c2ccc(N)c(N)c2)(c2cccs2)OC1 | 178 |
| COc1ccc(C(=O)Cl)cc1C12CC3CC(CC(C3)C1)C2 | 153 to 154 |
| O=C(OC1CCN(Cc2ccccc2)CC1)c1cccc(I)c1 | 101 to 103 |
| c1ccc(-c2nnc(-c3ccccn3)o2)cc1 | 127 to 128 |
| CCOC(=O)C=Cc1cc([N+](=O)[O-])cc2c1CCCC2 | 95 to 96 |
| O=C(O)C=CC12CC(c3ccccc31)c1ccccc12 | 220 to 222 |
| O=c1[nH]c(-n2cccn2)nc2ccccc12 | 148 to 150 |
| N#CC(C(=O)O)=C(c1ccc(F)cc1)c1ccc(F)cc1 | 180 to 181 |
| Fc1ccc(-c2ncn(C3CCNCC3)c2-c2ccnc(Oc3ccc(-c4ccccc4)cc3)n2)cc1 | 192 to 193 |
| Cc1ccc(N)cc1C(=O)O | 142 to 144 |

| Compound | melting point [°C] |
| --- | --- |
| Cc1cc(C=O)c(OCCCCCCc2ccccc2)c(C=O)c1 | 64 |
| O=C(CCCCOc1ccc(-c2ccc(F)cc2)cc1)NO | 160 to 162 |
| C#CCN1CC[C@H](O[Si](C)(C)C(C)(C)C)C1=O | 35 to 36 |
| CS(=O)(=O)NC1CCN(c2nc(N)nc(-c3cc(Cl)ccc3Cl)n2)C1 (configuration not stated) | 102 to 107 |
| CN(C)c1nn2nnnc2c2c1CCCC2 | 239 to 240 |
| CCC1(O)CC(=O)OCc2c1cc[nH]c2=O (configuration not stated) | 118 to 119 |
| O=[N+]([O-])c1ccc(N2CCN3CCC2CC3)nc1 | 143 to 146 |
| CCN(CCCN1C(=O)c2cc(OC)ccc2C(C)(C)C1=O)CCCN1C(=O)c2cc(OC)ccc2C(C)(C)C1=O | 141 to 143 |
| CCCCCCCCNC(=O)/C=C\SC(=O)c1cc(Cl)cc(Cl)c1 | 99 to 102 |
| O=C(COc1ccc(Cl)cc1Cl)C(=C1SCCCN1Cl)[N+](=O)[O-] | 103 to 105 |
| O=C(NCc1c[nH]c(=S)n1[C@H]1CCc2c(F)cc(F)cc2C1)c1ccco1 | 227 to 231 |
| CCS(=O)(=O)Nc1cc(N=C=S)c(F)cc1Cl | 104 to 105 |
| CC(=O)c1ccc(OCCCOc2cc(NC(=O)C(=O)O)c(C)cc2Br)c(CCC(F)(F)F)c1O | 133 to 135 |
| CCCCOc1cccc(OCCBr)c1 | 32 to 34 |
| Nc1c(CC(=O)N2CCC(O)CC2)cccc1Oc1ccccc1F | 160 to 161 |
| COc1ccc(C(=O)c2noc(CC(=O)O)n2)cc1 | 126 to 127 |
| N=C(N)c1ccc(-n2ccn(-c3ccc(C=CC(=O)O)cc3)c2=O)cc1 | > 350 |
| CCc1cc(C(N)=O)nn1C | 170 to 172 |
| Nc1c2c(nc3ccc(F)cc13)CCCC2 | 229 to 230 |
| CN(C)C=C(C#N)C(=O)c1ccc(-n2ccnc2)cc1 | 165 |
| CCN1CN(C)CN(c2cc(Cl)ccc2C)C1=S | 129 to 131 |
| CCOc1ccc(NC(=O)c2cn(CC)c3c2C(=O)CCC3)cc1 | 209 to 210 |
| N#CSc1ccc(O)cc1Br | 91 to 92 |
| CCOC(=O)c1c(C(F)F)nc(C(F)(F)F)c(C(=O)OCC)c1N | 29 to 30 |
| N#Cc1cc(N)ccc1N1CCN(CCO)CC1 | 137 to 138 |
| O=C(NC(=O)c1c(F)cccc1F)Nc1ccc(Cl)c(C(F)(F)F)c1 | 220 |
| CCN1CCNC(=O)C1c1ccc(Nc2nc(Br)cn(C)c2=O)cc1 (configuration not stated) | 152 to 153 |

Continued, values first:

| melting point [°C] | Compound |
| --- | --- |
| 135 to 136 | Cc1ccc(S(=O)(=O)N(C)NC(=O)c2c(F)cccc2Cl)cc1 |
| 148 to 149 | CC(C)(C)c1ccc(C[C@@H](NC(=O)c2cccc3c(F)cccc23)[C@@H](O)c2ccc(F)cc2)cc1 (racemic) |
| 156 to 158 | CC(C)(C)c1cc(CCc2ccccc2NC(=O)NC2CCN(Cc3ccncc3)CC2)cc(C(C)(C)C)c1O |
| 240 to 242 | CCn1c(C)c(C)c(=O)c(C(=O)O)c1-c1ccc(Cl)cc1 |
| 139 to 140 | CCOC(=O)c1cccc(-c2ccc(F)c3cc(CBr)sc23)c1 |
| 128 to 129 | CC(C)CN(CC(O)(Cn1cncn1)c1ccc(Cl)cc1Cl)S(C)(=O)=O (configuration not stated) |
| 168 to 170 | CCCc1ccccc1OCC(O)COc1cccc2oc(C(=O)O)cc(=O)c12 (configuration not stated) |
| 130 | COc1cc(C(CCl)(OC)OC)ccc1OS(=O)(=O)c1ccccc1 |
| 164 to 165 | COc1ccc2nc(Oc3c(Cl)cc(NS(=O)(=O)c4ccc(C(F)(F)F)cc4Cl)cc3Cl)sc2c1 |
| 181 to 182 | Cc1cccc(NC(=N)N(C)C)c1-c1ccccc1 |
| 144 to 146 | O=C(O)Cc1c(Cl)nc(-c2ccccc2)n1Cc1ccccc1F |
| 248 to 250 | O=C(O)c1ccc(COCc2csc3nc(C(=O)NCc4cccc(OC(F)(F)F)c4)[nH]c(=O)c23)cc1 |
| 135 to 138 | CCCCOCCOc1ccc(-c2ccc3c(c2)C=C(C(=O)Nc2ccc(S(=O)Cc4nncn4CCC)nc2)CCN3CC(C)C)cc1 (configuration not stated) |
| 155 to 156 | CC(C)(C)c1ccc(S(=O)(=O)N(Cc2cc(C(C)(C)C)c(O)c(C(C)(C)C)c2)c2cccnc2)cc1 |
| 73 to 76 | COc1ccc2nc(CC(C)C)c(CN)c(-c3ccccc3)c2c1 |
| 118 to 120 | Cc1c(OCCNC(=O)OC(C)(C)C)noc1-c1ccccc1 |
| 122 to 124 | O=C(NCc1ccccc1Cl)c1cccnc1Oc1ccc(F)cc1F |
| 206 to 207 | O=S(=O)(Nc1cccc(COc2cccc3cccnc23)c1)c1ccc(F)cc1 |
| 274 | Clc1cc(Cl)cc(-c2nc(Cl)c3ccccc3n2)c1 |
| 238 to 240 | O=C(O)C[C@H]1CCCC[C@H]1n1nc(-c2c(-c3ccccc3)nn3ccccc23)ccc1=O (relative stereo) |
| 268 | COc1ccc(C2C(Oc3ccccc3)C(=O)N2c2ccc(C(=O)O)cc2)cc1 (configuration not stated) |
| 195 to 197 | CCCOCCOc1ccc(-c2ccc3c(c2)C=C(C(=O)Nc2ccc(CN(C)C4CCOCC4)cc2)CCS3(=O)=O)cc1 |
| 110 to 111 | CCCC(=O)c1cnc2c(NCCCN3CCOCC3)cccc2c1Nc1ccccc1C |
| 205 to 208 | Cn1cc(C(=O)NCc2ccc(Cl)cc2)c(=O)c2cc(I)ccc21 |

| melting point [°C] | Compound |
| --- | --- |
| 151 | Cc1cccc2sc(-c3ccccn3)nc(=O)c12 |
| 191 to 192 | Nc1cc(N2CC(COc3ccccc3)OC2=O)ccn1 (configuration not stated) |
| 154 | Cc1cc2cc(CN3CCCC3)cnc2cc1NC(=O)c1ccc(-c2ccco2)cc1 |
| 123 to 125 | Cn1ccc(-c2ccc3c(ccn3-c3ccc(F)cc3)c2)n1 |
| 66 to 73 | COC(=O)c1ccc(CNC(=O)C2Cc3ccccc3N2S(=O)(=O)c2ccc(-c3ccc(F)cc3)cc2)cc1 (configuration not stated) |
| 114 to 115 | CCOC(=O)c1ccc(C#CCOc2cc3c(cc2C=O)C(C)(C)CCC3(C)C)cc1 |
| 264 to 265 | COC(=O)c1c(C(=O)OC)c(-c2ccc(Cl)cc2)n2c1Cc1c(n(C)c3ccccc13)C2 |
| 213 to 216 | Cc1cccc(-n2ncc(-c3ccc(S(C)(=O)=O)cc3)c(-c3ccc(F)cc3)c2=O)c1 |
| 178 to 179 | NS(=O)(=O)c1ccc(OCCOc2ccc(C(=O)C(=O)O)cc2)cc1 |
| 151 to 156 | O=C1c2ccccc2C(=O)c2cc(S(=O)(=O)NCCCN3CCOCC3)ccc21 |
| 171 to 176 | Cc1ccc(S(=O)(=O)N2N=C(c3ccccc3)CC3CCCC32)cc1 (configuration not stated) |
| 206 to 208 | Cc1ccc([N+](=O)[O-])cc1Nc1nccc(-c2cncc(Br)c2)n1 |
| 97 to 103 | CCCCOC(=O)c1cccc(CCN(C)CCCC(C#N)(c2ccc(OC)c(OC)c2)C(C)C)c1 (configuration not stated) |
| 148 to 149 | COC(=O)c1ccc(Cc2c[nH]c3ccc(C#N)cc23)c(OC)c1 |
| 117 | O=C(NCCCc1ccccc1)c1ccccc1NCc1ccncc1 |
| 88 | CN(CC(O)c1ccc(Cl)c(Cl)c1)C(=O)OC(C)(C)C (configuration not stated) |
| 113 to 114 | COc1ccc2[nH]c(S(=O)Cc3nccc(N(C)C)c3Cl)nc2c1 (configuration not stated) |
| 187 to 189 | O=C(Nc1ccc(F)cc1)Nc1cccc(OCc2ccccc2)c1 |
| 142 to 143 | COc1ccc(S(=O)(=O)N(Cc2cc(C(C)(C)C)c(O)c(C(C)(C)C)c2)c2cccnc2)cc1 |
| 276 to 277 | O=c1[nH]c2ccc(-c3cccc([N+](=O)[O-])c3)cc2s1 |
| 220 to 222 | CC1(c2ccc(O)cc2)Cc2cc(OCC(=O)O)c(Cl)c(Cl)c2C1=O (configuration not stated) |
| 158 to 160 | O=c1[nH]c2ccccc2n1CCN1CCN(c2cc(C(F)(F)F)ccc2O)CC1 |
| 140 | O=[N+]([O-])c1ccc(-c2ccc([N+](=O)[O-])cc2C(F)(F)F)c(C(F)(F)F)c1 |
| 152 to 154 | CCCn1c(COCC)nc2c(N)nc3ccc(OCc4ccccc4)cc3c21 |
